Data from ChEMBL document CHEMBL1201862, “PubChem BioAssay data set” (2004).
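1) Cells in 96-well plates. 2) Compound, 48 h, 5 concentrations. 3) Linear interpolation between surrounding doses. 4) Unreached endpoint = highest concentration. The concentration for 50% growth inhibition is given as GI50.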 Calls of active or inactive are those of the source. Cut-off read from the data, not from the text of the source: active = GI50 up to about 1.1 µM and inactive = higher.

Legend:
Assay in all cases: inhibition of tumour cell growth, NCI panel, 48 h
UACC-257 = system: UACC-257
MOLT-4 = system: MOLT-4
HCT-116 = system: HCT-116
CAKI-1 = system: CAKI-1
BT-549 = system: BT-549
SW-620 = system: SW-620
HL-60 = system: HL-60
HCC 2998 = system: HCC 2998
IGROV-1 = system: IGROV-1
SK-MEL-5 = system: SK-MEL-5
SF-295 = system: SF-295
T47D = system: T47D
K562 = system: K562
SF-539 = system: SF-539
TK-10 = system: TK-10
SK-MEL-2 = system: SK-MEL-2
UACC-62 = system: UACC-62
MDA-MB-231 = system: MDA-MB-231
SR = system: SR
SK-MEL-28 = system: SK-MEL-28

Compound | GI50 (UACC-257) | GI50 (MOLT-4) | GI50 (HCT-116) | GI50 (CAKI-1) | GI50 (BT-549) | GI50 (SW-620) | GI50 (HL-60) | GI50 (HCC 2998) | GI50 (IGROV-1) | GI50 (SK-MEL-5) | GI50 (SF-295) | GI50 (T47D) | GI50 (K562) | GI50 (SF-539) | GI50 (TK-10) | GI50 (SK-MEL-2) | GI50 (UACC-62) | GI50 (MDA-MB-231) | GI50 (SR) | GI50 (SK-MEL-28)
S=c1sc2ccccc2n1CN1CCN(Cc2ccccc2)CC1 | > 100 µM (inactive) | > 100 µM (inactive) | > 100 µM (inactive) | > 100 µM (inactive) | > 100 µM (inactive) | > 100 µM (inactive) | > 100 µM (inactive) | > 100 µM (inactive) | > 100 µM (inactive) | > 100 µM (inactive) | > 100 µM (inactive) | > 100 µM (inactive) | > 100 µM (inactive) | > 100 µM (inactive) | > 10 µM (inactive) | > 100 µM (inactive) | > 100 µM (inactive) |  |  | 
CCOC(=O)c1c(N2CCCC2)nsc1Nc1ccccc1 | > 100 µM (inactive) | > 100 µM (inactive) | > 100 µM (inactive) | > 100 µM (inactive) |  | > 100 µM (inactive) | > 100 µM (inactive) | > 100 µM (inactive) | > 100 µM (inactive) | > 100 µM (inactive) | > 100 µM (inactive) | > 100 µM (inactive) | > 100 µM (inactive) | > 100 µM (inactive) | > 100 µM (inactive) | > 100 µM (inactive) |  | > 100 µM (inactive) | > 100 µM (inactive) | > 100 µM (inactive)
Clc1cccc(/N=C/C=C/Nc2cccc(Cl)c2)c1 | 16.6 µM (inactive) | 22.2 µM (inactive) | 15 µM (inactive) | 26.1 µM (inactive) | 16.1 µM (inactive) | 22.9 µM (inactive) | 18.9 µM (inactive) | 11.9 µM (inactive) | 16 µM (inactive) | 16.8 µM (inactive) | 12.1 µM (inactive) |  |  | 17.2 µM (inactive) | 37.8 µM (inactive) |  |  | 15.7 µM (inactive) | 24.2 µM (inactive) | 16.1 µM (inactive)
COc1cc(C2c3cc4c(c(O)c3C(=O)C3CCC(=O)N32)OCO4)cc(OC)c1OC (configuration not stated) | > 100 µM (inactive) | 37.9 µM (inactive) | 56.4 µM (inactive) | 47.3 µM (inactive) | 32.7 µM (inactive) | 45.9 µM (inactive) | 45 µM (inactive) | 32 µM (inactive) | 61.9 µM (inactive) | 23.9 µM (inactive) | 36.6 µM (inactive) | 99.5 µM (inactive) | 34.9 µM (inactive) | 46.9 µM (inactive) | 67.5 µM (inactive) | 79.8 µM (inactive) | 30.1 µM (inactive) |  | 44.8 µM (inactive) | 49.5 µM (inactive)
C[C@]12CC[C@H](O)CC1=CC[C@@H]1[C@@H]2CC[C@]2(C)C(=O)/C(=C/c3ccc([N+](=O)[O-])cc3)C[C@@H]12 | 21.1 µM (inactive) | > 100 µM (inactive) | 13.7 µM (inactive) | 24.1 µM (inactive) | 23.3 µM (inactive) | 47.4 µM (inactive) | 36.4 µM (inactive) | 20 µM (inactive) | 8.73 µM (inactive) | 16.3 µM (inactive) | 6.65 µM (inactive) | 14.3 µM (inactive) | 59.6 µM (inactive) | 6.92 µM (inactive) |  | 17.7 µM (inactive) | 65 µM (inactive) |  | 93.8 µM (inactive) | 22.1 µM (inactive)
BrC(=C(c1ccc(OC2CCCCO2)cc1)c1ccc(OC2CCCCO2)cc1)c1ccccc1 (configuration not stated) | > 100 µM (inactive) | > 100 µM (inactive) | > 100 µM (inactive) | > 100 µM (inactive) |  | > 100 µM (inactive) | > 100 µM (inactive) |  | > 100 µM (inactive) |  | > 100 µM (inactive) | > 100 µM (inactive) | > 100 µM (inactive) | > 100 µM (inactive) | 28.8 µM (inactive) |  | > 100 µM (inactive) | > 100 µM (inactive) | > 100 µM (inactive) | > 100 µM (inactive)
Oc1c(NCn2nc(CCCCCCCCc3nn(CNc4ccc5ccccc5c4O)c(=S)o3)oc2=S)ccc2ccccc12 | 75.5 µM (inactive) | > 100 µM (inactive) | 11.9 µM (inactive) | > 100 µM (inactive) | > 100 µM (inactive) | 35.6 µM (inactive) |  | > 100 µM (inactive) | 50.2 µM (inactive) | 30.4 µM (inactive) | 33.7 µM (inactive) |  | > 100 µM (inactive) |  | 68.1 µM (inactive) | 42.8 µM (inactive) | 68.4 µM (inactive) | 20 µM (inactive) |  | 49.7 µM (inactive)
CC1(C)C2CC(c3ccncc3)ON2C(C)(C)N1O (configuration not stated) | > 100 µM (inactive) | > 100 µM (inactive) | > 100 µM (inactive) | > 100 µM (inactive) |  | > 100 µM (inactive) | > 100 µM (inactive) | > 100 µM (inactive) | > 100 µM (inactive) | > 100 µM (inactive) | > 100 µM (inactive) | > 100 µM (inactive) | > 100 µM (inactive) | > 100 µM (inactive) | > 100 µM (inactive) | > 100 µM (inactive) | > 100 µM (inactive) | > 100 µM (inactive) | > 100 µM (inactive) | > 100 µM (inactive)
Cc1cc(S(=O)(=O)Nc2nc(N)nc(N(C)C)n2)c(SC(C(=O)O)c2ccccc2)cc1Cl (configuration not stated) | > 10 µM (inactive) | > 10 µM (inactive) | > 10 µM (inactive) | > 10 µM (inactive) | > 10 µM (inactive) | > 10 µM (inactive) | > 10 µM (inactive) | > 10 µM (inactive) | > 10 µM (inactive) | > 10 µM (inactive) | > 10 µM (inactive) | > 10 µM (inactive) | > 10 µM (inactive) | > 10 µM (inactive) | > 10 µM (inactive) | > 10 µM (inactive) |  |  | > 10 µM (inactive) | > 10 µM (inactive)
[O-][n+]1onc2c1CCC(=N\O)/C2=N/Nc1ccccc1 | > 100 µM (inactive) | > 100 µM (inactive) | > 100 µM (inactive) | > 100 µM (inactive) |  | > 100 µM (inactive) | 49.4 µM (inactive) |  | > 100 µM (inactive) | > 100 µM (inactive) | > 100 µM (inactive) |  | > 100 µM (inactive) | > 100 µM (inactive) | > 100 µM (inactive) | > 100 µM (inactive) | > 100 µM (inactive) | > 100 µM (inactive) | > 100 µM (inactive) | > 100 µM (inactive)
CN1C(=O)C(O)CC1c1ccccc1C(F)(F)F (configuration not stated) | > 100 µM (inactive) | > 100 µM (inactive) | > 100 µM (inactive) | > 100 µM (inactive) | > 100 µM (inactive) | > 100 µM (inactive) | > 100 µM (inactive) | > 100 µM (inactive) | > 100 µM (inactive) | > 100 µM (inactive) | > 100 µM (inactive) |  |  | > 100 µM (inactive) |  | > 100 µM (inactive) | > 100 µM (inactive) | > 100 µM (inactive) | > 10 µM (inactive) | > 100 µM (inactive)
CCC(C)c1c(Cl)nc(Cl)nc1Cl (configuration not stated) | > 10 µM (inactive) | 0.271 µM (active) | 6.07 µM (inactive) |  | 1.75 µM (inactive) | 3.71 µM (inactive) | 2.99 µM (inactive) | 11.4 µM (inactive) | 14.4 µM (inactive) | 2.81 µM (inactive) | 24 µM (inactive) |  | 2.2 µM (inactive) | 23.4 µM (inactive) | 21.3 µM (inactive) | 20.9 µM (inactive) | 18.6 µM (inactive) |  | 1.25 µM (inactive) | 7.18 µM (inactive)
CC(CO)CCC(O)C(C)(O)C1CCC2(O)C3=CC(=O)C4CC(O)C(O)CC4(C)C3CCC12C (configuration not stated) | > 100 µM (inactive) | > 100 µM (inactive) | > 100 µM (inactive) | > 100 µM (inactive) | > 100 µM (inactive) | > 100 µM (inactive) | > 100 µM (inactive) | > 100 µM (inactive) |  | > 100 µM (inactive) | > 100 µM (inactive) |  | > 100 µM (inactive) | > 100 µM (inactive) |  | > 100 µM (inactive) | > 100 µM (inactive) | > 100 µM (inactive) | > 100 µM (inactive) | > 100 µM (inactive)
C[C@H]1C=C2C(=O)O[C@H]3CC[C@@H](C1)[C@@]23O | 10.3 µM (inactive) | 1.21 µM (inactive) | 2.75 µM (inactive) | 3.72 µM (inactive) |  | 3.28 µM (inactive) | 2.12 µM (inactive) | 13.8 µM (inactive) | 6.03 µM (inactive) | 4.13 µM (inactive) | 4.4 µM (inactive) |  | 2.37 µM (inactive) | 2.03 µM (inactive) | 4.68 µM (inactive) | 2.71 µM (inactive) | 3.18 µM (inactive) |  | 0.233 µM (active) | 4.07 µM (inactive)
CC(C)(C)OC(=O)[C@H]1CCC(=S)N1Cc1ccccc1 | > 100 µM (inactive) | > 100 µM (inactive) | > 100 µM (inactive) | > 100 µM (inactive) |  | > 100 µM (inactive) | > 100 µM (inactive) | > 100 µM (inactive) | > 100 µM (inactive) | > 100 µM (inactive) | > 100 µM (inactive) |  |  | > 100 µM (inactive) | > 100 µM (inactive) | > 100 µM (inactive) | > 100 µM (inactive) | > 100 µM (inactive) | > 100 µM (inactive) | > 100 µM (inactive)
C/C(=N\O)c1ccc2ccc3ccccc3c2c1 | 22.9 µM (inactive) | 18.5 µM (inactive) | 90.6 µM (inactive) | 51.9 µM (inactive) |  | 30.6 µM (inactive) | 22.2 µM (inactive) |  | 44 µM (inactive) | 19.2 µM (inactive) | 37.3 µM (inactive) | 56.6 µM (inactive) | 25.5 µM (inactive) | 17.5 µM (inactive) | 37.9 µM (inactive) | 43 µM (inactive) | 18.9 µM (inactive) | 28.1 µM (inactive) | 21.8 µM (inactive) | 44.2 µM (inactive)
